Patent publication US12642270B2, “Substituted thiophene carboxamides, thiophene carboxylic acids and derivatives thereof” (Bayer Aktiengesellschaft, priority 2019, dated 2026)

Test: Log P by HPLC on reversed phase columns (EEC directive 79/831 Annex V.A8)
Format: physicochemical
Conditions: method [a]
Procedure, shortened: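 Values come from retention times calibrated against alkan-2-ones (3–16 carbons) by linear interpolation, using reversed-phase LC-UV per EEC directive 79/831 Annex V.A8. Acetonitrile gradient 10–95% with 0.1% formic acid [a], 0.001 M ammonium acetate [b] or 0.1% phosphoric acid [c]; several values within one method separated by "+".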

Row | Structure (SMILES) | LogP
1 | CCOC(=O)CN(OC)C(=O)c1sc(C#N)c(Cl)c1Cl [1.0845] | 3.06^[a]
2 | CCOC(=O)[C@H](CO)NC(=O)c1sc(C#N)c(Br)c1C [1.0846] | 2.11^[a]
3 | CCOC(=O)C(CO)NC(=O)c1sc(Br)c(Cl)c1Br (stereo not drawn) [1.0847] | 2.89^[a]
4 | CCOC(=O)CNC(=O)c1sc(C)c(Cl)c1Cl [1.0848] | 2.82^[a]
5 | COC(=O)C1(NC(=O)c2sc(Br)c(Br)c2Cl)CCC1 [1.0849] | 3.75^[a]
6 | N#CCNC(=O)c1sc(Br)c(Br)c1Cl [1.0850] | 2.67^[a]
7 | COC(=O)CNC(=S)c1sc(Cl)c(Cl)c1Br [1.0851] | 4.09^[a]
8 | COC(=O)CNC(=S)c1sc(Br)c(Br)c1Cl [1.0852] | 4.07^[a]
9 | CCOC(=O)C1(NC(=S)c2sc(Cl)c(Br)c2Cl)CCC1 [1.0853] | 5.04^[a]
10 | O=C(O)CNC(=S)c1sc(Cl)c(Cl)c1Br [1.0854] | 3.11^[a]
11 | C#CCOC(=O)CNC(=O)c1sc(Br)c(Br)c1F [1.0855] | 2.87^[a]
12 | O=C(CNC(=O)c1sc(Br)c(Br)c1F)OC1CC1 [1.0856] | 3.02^[a]
13 | C=CCOC(=O)CNC(=O)c1sc(Br)c(Br)c1F [1.0857] | 3.13^[a]
14 | N#CCCOC(=O)CNC(=O)c1sc(Br)c(Br)c1F [1.0858] | 2.48^[a]
15 | O=C(CNC(=O)c1sc(Br)c(Br)c1F)OCC1CC1 [1.0859] | 3.39^[a]
16 | CCCCOC(=O)CNC(=O)c1sc(Br)c(Br)c1F [1.0860] | 3.79^[a]
17 | O=C(O)CNC(=S)c1sc(Br)c(Br)c1Cl [1.0861] | 3.08^[a]
18 | O=C(CNC(=O)c1sc(Br)c(Br)c1F)OC1CCCC1 [1.0862] | 3.84^[a]
19 | O=C(CNC(=O)c1sc(Br)c(Br)c1F)Oc1ccccc1 [1.0863] | 3.58^[a]
20 | COC(=O)CNC(=S)c1sc(C#N)c(Br)c1C [1.0864] | 2.92^[a]
21 | CCOC(=O)C(NC(=S)c1sc(Br)c(Br)c1F)C1CC1 (stereo not drawn) [1.0865] | 4.99^[a]
22 | N#CC1(NC(=O)c2sc(Br)c(Br)c2Cl)CCSCC1 [1.0868] | 3.71^[a]
23 | N#CC1(NC(=O)c2sc(Br)c(Br)c2F)CCSCC1 [1.0871] | 3.40^[a]
24 | CC(C#N)(NC(=O)c1sc(Br)c(Br)c1F)C1CC1 (stereo not drawn) [1.0872] | 3.47^[a]
25 | N#CC1(NC(=O)c2sc(Br)c(Br)c2Cl)CCC1 [1.0873] | 3.35^[a]
26 | CC(C)C(C#N)NC(=O)c1sc(Br)c(Br)c1Cl (stereo not drawn) [1.0874] | 3.88^[a]

Row | Structure (SMILES) | LogP
27 | O=C(O)CNC(=O)c1sc(Cl)c(Br)c1Cl [1.0875] | 2.18^[a]
28 | O=C(O)C(Cc1ccccc1)NC(=S)c1sc(Br)c(Br)c1F (stereo not drawn) [1.0876] | 4.17^[a]
29 | CCOC(=O)CNC(=S)c1sc(C#N)c(Br)c1C [1.0877] | 3.30^[a]
30 | COC(=O)CNC(=S)c1cc(Br)c(Cl)s1 [1.0878] | 3.35^[a]
31 | CCCOC(=O)C1(NC(=O)c2sc(Cl)c(Cl)c2Br)CCC1 [1.0879] | 4.74^[a]
32 | O=C(NC1(C(=O)OC2CCCCC2)CCC1)c1sc(Cl)c(Cl)c1Br [1.0880] | 5.89^[a]
33 | NC(=S)C1(NC(=O)c2sc(Cl)c(Cl)c2Br)CC1 [1.0881] | 2.77^[a]
34 | CNC(=O)C1(NC(=O)c2sc(Cl)c(Cl)c2Br)CC1 [1.0882] | 2.28^[a]
35 | O=C(CNC(=O)c1sc(Br)c(Br)c1Cl)OC1CCOCC1 [1.0883] | 3.14^[a]
36 | CC(C)(C)OC(=O)C(NC(=O)c1sc(Br)c(Br)c1Cl)C1CC1 (stereo not drawn) [1.0884] | 5.36^[a]
37 | O=C(NC(C(=O)OC1CCC1)C1CC1)c1sc(Br)c(Br)c1Cl (stereo not drawn) [1.0885] | 5.08^[a]
38 | CC(C)OC(=O)C(NC(=O)c1sc(Br)c(Br)c1Cl)C1CC1 (stereo not drawn) [1.0886] | 4.89^[a]
39 | O=C(NC1(C(=O)OCC2CC2)CCC1)c1sc(Br)c(Br)c1Cl [1.0887] | 4.81^[a]
40 | O=C(NC1(C(=O)OCc2ccccc2)CCC1)c1sc(Cl)c(Cl)c1Br [1.0888] | 5.00^[a]
41 | O=C(NC1(C(=O)OC2CCC2)CCC1)c1sc(Cl)c(Cl)c1Br [1.0889] | 4.93^[a]
42 | CCCCOC(=O)C1(NC(=O)c2sc(Cl)c(Cl)c2Br)CCC1 [1.0890] | 5.20^[a]
43 | CC(C)(C)OC(=O)C1(NC(=O)c2sc(Cl)c(Cl)c2Br)CCC1 [1.0891] | 5.28^[a]
44 | COC(=O)CNC(=O)c1sc(Cl)c(C)c1Cl [1.0892] | 2.64^[a]
45 | CCOC(=O)CNC(=O)c1sc(Cl)c(C)c1Cl [1.0893] | 3.07^[a]
46 | NC(=O)CNC(=O)c1sc(Br)c(Br)c1F [1.0894] | 1.69^[a]
47 | N#CNC(=O)C1(NC(=O)c2sc(Br)c(Br)c2F)CC1 [1.0895] | 2.38^[a]
48 | NC(=S)CNC(=O)c1sc(Br)c(Br)c1F [1.0896] | 2.25^[a]
49 | COC(=O)C1(NC(=O)c2sc(C)c(Cl)c2Cl)CC1 [1.0897] | 2.67^[a]
50 | CC(C)(C)OC(=O)C1(NC(=O)c2sc(Br)c(Br)c2Cl)CC1 [1.0898] | 5.28^[a]
51 | CCOC(=O)CNC(=O)c1cc(Cl)c(F)s1 [1.0899] | 2.23^[a]
